Test results from patent US5583155A, “6-amino-1,2-benzopyrones useful for treatment of viral diseases” (Octamer, Inc., priority 1994, dated 1996).
In brackets after ≈: the same amount, converted by molar mass. Entries after “also recorded” stand apart in the source; their conditions may differ. Read-outs that look alike come from different tables or passages of the source.

Assays:
[1] = test system: HIV in human lymphoblasts; experiment: HIV in human lymphoblasts (reverse transcriptase assay); format: cell-based; settings: 18 hours exposure, FIG. 11E
Protocol: (§1) In FIGS. 11A through 11E, normal lymphoblasts stimulated with PHA are infected with HIV and at the same time are submitted to various concentrations from 0-10 mM 6-ABP. After the short exposure of 18 hours, both HIV and 6-ABP are removed, FIGS. 11A, 11C, 11E and the 6-ABP in the same concentrations is readded up to 4 days to cultures shown in FIGS. 11B and 11D. At 4 days, proliferation index measured by ^3 H-thymidine incorporation is determined in FIGS. 11A and 11B. […] In FIGS. 11C and […], the viral synthesis or inhibition is measured by p 24 assay.
Human peripheral blood mononuclear cells from a noninfected, normal individual were stimulated for 2 to 3 days with phytohemagglutinin in tissue culture, washed, aliquoted and cultured overnight with 200 TCID or 50 TCID of HIV and were untreated or treated with 0.01, 0.1, 1.0 or 10.0 mM 6-ABP. An additional control was incubated with 10 mM 6-ABP without presence of HIV. After the overnight incubation, […]. The cells were placed in culture in medium containing IL-2, but in the absence of additional 6-ABP, and monitored at 6 days and 12 days for the production of HIV-p24 core antigen, or for measurements of particulate reverse transcriptase. […]
HIV p24 antigen was measured by ELISA, with a cutoff of 5 pgm/ml. […]

HIV in whole blood = experiment: HIV inhibition in whole blood of HIV infected patients; format: cell-based; settings: FIG. 10 results repeated in whole blood
[2] = Aqueous solubility and solution stability; format: physicochemical
ADPRT [3] = experiment: Binding to ADPRT; settings: enzymes other than ADPRT
HSV-1 strain F = experiment: microbe, parasite or virus in culture; format: cell-based, Herpes simplex virus type 1
AA-2 cells = experiment: AA-2 cell count and viability; format: cell-based; settings: 3 mM
Protocol: The effects of 6-ABP treatment of AA-2 cells was directly analyzed by cell count and viability tests including cloning efficiency and trypan blue uptake. The AA2 cell culture having initial cell count per well 0.5×10^5 was submitted to treatment with 3 mM of 6-ABP and compared to untreated (Control) cell culture. The cells were counted 4 days after the treatment with 6-ABP.

[4] = test system: HIV (activated by HSV IE-110) in U937 cells; experiment: HIV growth activated by HSV IE110 in U937 cells (syncytium-forming assay)
Protocol: For the purpose of determining the ability of 6-ABP to inhibit HIV growth activation, the duplicate cells cultures were used. In experiments 1 and 2, U937 cells were transfected with HSV IE-110 gene and, CMV IE gene and infected HIV. […] In experiment 3, U937 cells transfected with HSV IE-110 and infected with HIV were treated with 3 mM of 6-ABP.
In all experiments shown in FIG. 3 and 4, the cells were exposed to 3 mM drug for 24 hrs.
DNA transfection was performed with DEAE dextran. Briefly, U937 cells (5×10^6) were exposed for 60 min. at 37° C. to a mixture of DEAE Dextran (1.05 ug/ml) and DNA in STBS buffer (25 mM Tris HCl, having pH 7.5, 137 mM NaCl, 0.5 MgCl2, 0.7 mM CaCl2 and 5 mM KCl and 0.6 mM Na2 HPO4) in 15 ml snap cap 6×35 mm polyethylene dishes from Costar, Cambridge, Mass., at 5×10^6 cells per well. Routinely, transfection mixtures contained 1.0 ug of target supercoiled plasmid and 0.1 ug DNA to equalize nucleic acid concentration effects. Transfected cells were harvested 40 to 44 hr post transfection in CAT harvest buffer (40 mM Tris, having pH 7.4 150 mM NaCl, 1 mM EDTA) and stored at -20° C. until assayed.
In one series of experiments, the effect of HSV IE110 and CMV IE2 gene expression on HIV replication using the syncytium assay formation on MT2 cells that defines HIV growth was examined. The ability of 6-ABP to inhibit HIV growth activation was studied in duplicate cultures. U937 cells were transfected with HSV IE110 CMV IE genes or mock transfected with pBR322 plasmid and duplicate cells were pretreated with HIV. Virus (HIV) growth was assayed at various times thereafter. HIV titers are expressed as syncytia forming units/ml.
Transfection was 24 hours before HIV infection. Sampling was done at days 3, 5, 6, and 8 post infection with HIV. 6-ABP treatment was 24 hours prior to transfection in order to allow intercellular 6-ABP concentration to equilibrate with external drug concentration. The timing chosen and drug dosage relate to drug penetration.

ADPRT [5] = settings: FEBS Lett., 212:73 (1987); cited from earlier work
[6] = test system: HIV in human lymphoblasts; experiment: HIV production in human lymphoblasts (p24 antigen); format: cell-based, HIV (isolates from blood of infected patients)
Protocol: In FIG. 10, human lymphoblast exposed to 6-ABP for 18 hours. The drug concentrations studied were between 0.01 to 10 mM. HIV production was studied in two time intervals, 6 and 12 days after the drug removal.
as §1
The HIV isolates used in these experiments were isolated from the blood of infected patients. After isolation, HIV infection was established in CEM cells, and these infected cells were used to produce a stock of HIV virus that was titered to measure the concentration of tissue culture infective doses (TCID).
6 ABP was dissolved in saline in amount which was further diluted as required, and added to the culture medium containing cells at the indicated concentrations.
Human peripheral blood mononuclear cells from a noninfected, normal individual were stimulated for 2 to 3 days with phytohemagglutinin in tissue culture, washed, aliquoted and cultured overnight with 200 TCID or 50 TCID of HIV and were untreated or treated with 0.01, 0.1, 1.0 or 10.0 mM 6-ABP. An additional control was incubated with 10 mM 6-ABP without presence of HIV. After the overnight incubation, […]. The cells were placed in culture in medium containing IL-2, but in the absence of additional 6-ABP, and monitored at 6 days and 12 days for the production of HIV-p24 core antigen, or for measurements of particulate reverse transcriptase. A decrease in the amount of either of these indicators of HIV indicated an inhibition by 6-ABP in the ability of HIV to replicate in normal human lymphoblasts.
HIV p24 antigen was measured by ELISA, with a cutoff of 5 pgm/ml. Particulate reverse transcriptase was measured by centrifuging down free virus from tissue culture fluids, lysing HIV in a buffer containing detergent, magnesium, H3-labelled dTTP and poly rA.oligo dT primer, incubating for 1 hour, and measuring precipitable radioactivity, expressed as cpm per volume of HIV-containing medium.

[7] = format: in vivo
Protocol: This example illustrates the lack of toxicity after intraperitoneal administration of 6-ABP to mice.
Two toxicological tests administering 6-ABP to mice were performed under the following conditions.
One group of 5 mice received 6-ABP i.p. injection in amount of 1 g/kg.
Group of 50 white mice was injected daily with 250 mg/kg 6-ABP i.p. for 12 days.

[8] = Intracellular metabolism of 6-ABP
established cell lines = experiment: Intracellular drug concentration / transport in twelve cell lines; format: in vitro ADME
Protocol: It is of importance to determine both intracellular drug concentrations and mechanisms of drug transport. Twelve different cell types were incubated with varying concentrations of the drug for varying periods and intracellular drug concentration assayed with the aid of [5^3 H] labeled 6-ABP. […] Thus, there is a significant transport regulation through the cell membrane.

[9] = Yakugaku Zasshi, cited from earlier work
Adenovirus = experiment: microbe, parasite or virus in culture; format: cell-based, Adenovirus (patient isolate)

SMILES: Nc1ccc2oc(=O)ccc2c1 [6-ABP, 6-amino-1,2-benzopyrone]
- virus inhibition, reverse transcriptase assay [1]: virus inhibition
- HIV inhibition in whole blood (HIV in whole blood): essentially reproduced in whole blood of HIV infected patients
- solution stability ([2]; 10-12 mM solution, pH 7.2-7.9, room temperature, in the dark): stable for months at room temperature
- solubility ([2]; aqueous media, pH 7.2-7.9): 10 to 12 mM (≈ 1610 to 1930 µg/mL)
- degraded ([2]; aqueous solution, 10-12 mM solution, months at room temperature, in the dark, read-out: decomposition of solution): < 0.1%
- effect on other enzymes (ADPRT [3]): no other enzymes are activated or inhibited
- effect of time of drug addition, HSV-1 (F) (HSV-1 strain F; 1, 5 and 10 mM, zero time vs 4 hours after infection): essentially no differences found between the two modes of drug exposure
- dependence of inhibitory effect on cell type (HSV-1 strain F; HSV growth in HEp-2, Vero and MRC-5 cells): not affected by cell type
- inhibition at 1000 µM (HSV-1 strain F; Human alphaherpesvirus 1, 1 mM at 0 and 4 hours post infection, respectively, read-out: inhibition of HSV-1 growth): 60 to 65%
- inhibition at 1000 µM (HSV-1 strain F; Human alphaherpesvirus 1, 1 mM, 24 hours before infection, read-out: inhibition of HSV-1 growth): 50%
- inhibition at 10000 µM (HSV-1 strain F; Human alphaherpesvirus 1, 10 mM, 0 and 4 hours post infection, read-out: inhibition of HSV-1 growth): ~80%
- inhibition at 2000 µM (HSV-1 strain F; Human alphaherpesvirus 1, HEp-2, 24 h, 2 mM, 24 hrs preexposure, HEp-2 cells, FIG. 1A, read-out: inhibition of HSV-1 strain F growth): > 50%
- IC50 (HSV-1 strain F; Human alphaherpesvirus 1, 24 hours pretreatment, HEp-2 cells, read-out: concentration for 50% inhibition of growth, HSV-1 strain F): 2000 µM
- cell proliferation (AA-2 cells; AA-2 cells): inhibitory effect on cell proliferation
- Viability test / cellular toxicity (AA-2 cells; AA-2 cells, cloning efficiency and trypan blue uptake): no evidence of toxic effects; also recorded: does not coincide with any detectable cellular toxicity
- Cell Count After 4 days (AA-2 cells; initial count per well 0.5 × 10^5, control 1.5 × 10^5): 0.7 × 10^5 (± 35%)
- effect on activation by HSV IE110 ([4]; 1 mM): virtually abrogates activation by HSV IE110
- HIV growth, U937 + HSV IE110 + 6-ABP ([4]; 1 mM, day 3): 32 SFU/ml
- HIV growth, U937 + HSV IE110 + 6-ABP ([4]; 1 mM, day 5): 64 SFU/ml
- HIV growth, U937 + HSV IE110 + 6-ABP ([4]; 1 mM, day 6): 100 SFU/ml
- HIV growth, U937 + HSV IE110 + 6-ABP ([4]; 1 mM, day 8): 100 SFU/ml
- effect on IE-110(HSV)-activated growth of HIV ([4]; 3 mM, FIG. 3): profoundly depresses IE-110(HSV)-activated growth of HIV
- HIV growth, U937 + HSV IE-110, reduced to background levels ([4]; 3 mM, days 4 to 8, FIG. 3): 250-300 SFU per ml
- binding to ADPRT (ADPRT [5]): specifically binding to ADPRT at the same site that also binds catalytically effective DNA termini
- viral multiplication, p 24 assay ([6]; 0-10 mM, 18 hours or 4 days exposure, FIGS. 11C and 11D): almost completely inhibited
- HIV production in human lymphoblasts ([6]; 0.1 μM (so in the source), 18 hours exposure, 6 and 12 days): HIV production decreased dramatically
- decrease of HIV (p24 tests) ([6]; 0.1 mM, 18 hours exposure, 6 or 12 days past infection): dramatic decrease of HIV
- selectivity against HIV replication vs cellular DNA synthesis ([6]; 18 hr exposure, FIG. 11): great selectivity of 6-ABP against HIV replication
- behavior ([7]; 250 mg/kg i.p. daily, 12 days): quite normal
- toxic effects ([7]; 250 mg/kg i.p. daily, 12 days): no visible toxic effects
- weight gain ([7]; 250 mg/kg i.p. daily, 12 days): no disruption in their normal weight gain
- seizures and weakness in one mouse ([7]; 1 g/kg i.p., 4 hours after injection, recovered in 18 hours): seizures and hind leg weakness but then completely recovered in 18 hours
- toxic symptoms ([7]; 1 g/kg i.p., single, 24 hours observation): no toxic symptoms in 4 mice
- reduction-oxidation cycle ([8]; liver vs target cells): high in liver but much lower in target cells
- intracellular oxidation ([8]; to 6-nitroso-1,2-benzopyrone): rapid oxidation at the 6-amino position
- concentration of intracellular drug (established cell lines; 1 mM extracellular administration, depending on cell types): 65 to 200 µM
- intracellular plateau, % of drug concentration applied extracellularly (established cell lines; 12 established cell lines): 10-20%
- time to plateau of 6-ABP transport (established cell lines; 12 established cell lines): 18 to 24 h
- penetration of mammalian cells (established cell lines; physiological pH 7.2-7.4): to a limited degree
- hypothermal effect ([9]; 78:491 (1958)): 6-amino group decreased the hypothermal effect
- antipyretic, hypnotic, hypotensive and adrenolytic action ([9]; 83:1124 (1963)): Some antipyretic, hypnotic, hypotensive and adrenolytic action
- Virus Titer +6-ABP (Adenovirus) (Adenovirus; 1 mM 6-ABP, 24 hours before infection): 1 × 10^2 TCID50
- effect on Adenovirus growth (Adenovirus; 6-ABP treatment): no effect
- inhibition at 1000 µM (Adenovirus; unidentified adenovirus, 1 mM 6-ABP, 24 hours before infection): 0%
